{
  "source": "ChEMBL document CHEMBL1126209",
  "about": "“Synthesis of a peptidyl 2,2-difluoro-3-aminopropionate” (Bioorg Med Chem Lett, 1992)",
  "note": "Residues, ends and D or L forms follow the SMILES beside them. *: point of attachment. Dansyl = CN(C)c1cccc2c(S(=O)(=O)*)cccc12; Cbz = O=C(OCc1ccccc1)*; CF3 = FC(F)(F)*",
  "data": [
    {"target": "T1, Neutrophil elastase (Homo sapiens, UniProt P08246)", "T1 sequence (P08246 whole entry)": "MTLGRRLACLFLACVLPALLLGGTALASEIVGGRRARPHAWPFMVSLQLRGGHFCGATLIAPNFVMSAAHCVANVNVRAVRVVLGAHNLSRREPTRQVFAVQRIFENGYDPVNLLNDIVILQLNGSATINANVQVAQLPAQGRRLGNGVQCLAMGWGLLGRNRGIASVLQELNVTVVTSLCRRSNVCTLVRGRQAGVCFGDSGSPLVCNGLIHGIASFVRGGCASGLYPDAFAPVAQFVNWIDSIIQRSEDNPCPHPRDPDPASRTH", "experiment": "Compound was evaluated In vitro for inhibition of human neutrophil elastase", "units": {"Ki": "nM"}, "values": [
      {"compound": "CCOC(=O)C(F)(F)C(NC(=O)C1CCCN1C(=O)C(C)NC(=O)C(C)NC(=O)OC(C)(C)C)C(C)C", "note": "(centres undefined)", "Ki": "> 300000"},
      {"compound": "CC(C)[C@H](NC(=O)[C@@H]1CCCN1C(=O)[C@H](C)NC(=O)[C@H](C)NCC(=O)OC(C)(C)C)C(=O)C(F)(F)F", "Ki": 44},
      {"compound": "CC(C)[C@H](NC(=O)[C@@H]1CCCN1C(=O)[C@H](C)NC(=O)[C@H](C)NC(=O)OCc1ccccc1)C(=O)C(F)(F)F", "note": "(Cbz-AAPV-CF3)", "Ki": 1},
      {"compound": "CC(C)[C@H](NC(=O)[C@@H]1CCCN1C(=O)[C@H](C)NC(=O)[C@H](C)NS(=O)(=O)c1cccc2c(N(C)C)cccc12)C(=O)C(F)(F)F", "note": "(Dansyl-AAPV-CF3)", "Ki": 10}
    ]}
  ]
}
